Source: patent publication US11660326B2, “Bacterial-binding peptides for treatment of infectious diseases and related inflammatory processes” (priority 2018, dated 2023)

Key:
[1] = Solid phase binding assay (ELISA) of biotin-labeled peptides to immobilized LPS; design: species or system E. coli; details: biotin-labeled peptide 5-20 μg/mL; LPS 5 μg/mL coated
Method: (§1) FIG. 3. Binding of biotin-labeled CD6-derived peptides to immobilized PAMPs from Gram- and Gram+ origin. Increasing concentrations (5-20 μg/mL) of biotin-labeled CD6- (PD1, PD2, PD3 and cons), DMBT1- (pbs1), and CD5- (PD1) derived peptides were added to 96-well ELISA plates sensitized with E. coli 0111:B4 LPS (A) or S. aureus LTA (B) (5 μg/mL each in PBS). Following overnight incubation at 4° C. bound peptides or proteins were developed by addition of horseradish peroxidase (HRP)-labeled streptavidin and 3,3′,5,5′-tetramethylbenzidine (TMB) substrate and further readings at OD 405-620 nm. Results are expressed as mean±SD of duplicates from one representative experiment of three performed. Statistical analysis was performed by two-way ANOVA (*,P<0.05; **, P<0.01; ***, P<0.001).
(§2) Solid Phase Binding Assays. 96-well microtiter plates (Nunc, Roskilde, Denmark) were coated overnight at 4° C. with 5 μg/mL of purified LPS (E. coli 0111:B4, Sigma L2630) or LTA (S. aureus, Sigma L2515) in PBS, and then incubated for 2 h at room temperature in blocking solution (20 mM Tris-HCl pH 7.4 plus 0.05% Tween 20 and 1% BSA). Biotin-labeled peptides/proteins (2.5-20 μg/mL) were added and incubated overnight at 4° C. in blocking solution. After extensive washing, bound peptides/proteins were detected by the addition of horseradish peroxidase (HRP)-labeled streptavidin (1:5,000 dilution; DAKO) for 1 h at room temperature. Color was developed by adding 3,3′,5,5′-tetramethylbenzidine (TMB) liquid substrate (Sigma), and optical density read at 405-620 nm.

[2] = Solid phase binding assay (ELISA) of biotin-labeled peptides to immobilized LTA; design: species or system S. aureus; details: biotin-labeled peptide 5-20 μg/mL; LTA 5 μg/mL coated
Method: as §1, §2

[3] = Dynamic light scattering (DLS), hydrodynamic size of peptides in solution; format: physicochemical; details: 10 μg/mL in PBS, 25° C.
Method: FIG. 5. Analysis of the hydrodynamic size of CD6-derived peptides in solution. The dynamic light scattering (DLS) analysis of the hydrodynamic diameter of CD6 (PD1, PD2, PD3, and Pcons) and DMBT-1/SAG (pbs1) derived peptides (10 μg/mL) in PBS is shown. The y axis represents the relative intensity of the scattered light; the x axis denotes the hydrodynamic diameter of the particles present in the solution. One representative experiment of four performed is shown (left). The numeric values obtained for each peptide are also shown (right).
The hydrodynamic diameters of peptides (10 μg/mL in PBS) were measured at 25° C. in a Zetasizer Nano S from Malvern Instruments (Worcestershire, UK) equipped with a 633 nm HeNe laser, as described (Saenz A, et al., 2010, Fluidizing effects of C-reactive protein on lung surfactant membranes: protective role of surfactant protein A, FASEB J 24:3662-73). Four scans were recorded for each sample, and samples were analyzed in triplicate.

[4] = tested on: mouse splenocytes exposed to LPS; assay: LPS-induced cytokine release by mouse splenocytes; format: cell-based, C57BL/6 mice; details: LPS 0.5 μg/mL, 48 h, peptide 0.5, 5 and 20 μg/mL
Method: FIG. 6. Effect of CD6-derived peptides on in vitro LIPS-induced cytokine release by mouse splenocytes. Total spleen cell suspensions (2×10^5) from C57BL/6 mice (n=7) were stimulated in triplicate for 48 h with LPS (0.5 μg/mL), in the presence or absence of increasing concentrations (0.5, 5, and 20 μg/mL) of CD6-derived peptides (PD1, PD2, PD3, and Pcons). Cytokine levels in culture supernatants were determined by ELISA and results expressed in pg/mL as mean±SD of triplicates. Viability was >75% at 48 h in all experimental conditions. Statistical analysis was performed using a 2-tailed Mann-Whitney test, with confidence intervals of 95% (*, P<0.05; **, P<0.01; ***, P<0.001).
Spleens from 6-8 week old C57BL/6 mice (Charles River) were disaggregated by filtering through a cell strainer and, after erythrocyte lysis, cells were resuspended in RPMI 1640 with L-glutamine (Lonza) plus 10% fetal calf serum (BioWest), 100 U/mL penicillin, 100 μg/mL streptomycin and 50 μM 2-(3 Mercaptoethanol (Merck). Cells (2×10^5) were stimulated for 48 h (at 37° C. in a humidified atmosphere with 5% CO2) in U-bottomed 96-well plates (Biofil) containing LPS (0.5 μg/mL; E. coli O111:B4), in the presence or absence of increasing peptides (0.5-20 μg/mL). Culture supernatants were harvested and mouse cytokines measured by ELISA following manufacturer's instructions (BD Biosciences OptEIA sets).

[5] = tested on: mice undergoing CLP-induced septic shock; assay: Mouse survival following CLP-induced septic shock; format: in vivo, C57BL/6J mice; details: single 6 mg/kg i.v. at +1 h post CLP; FIG. 7
Method: FIG. 7. Comparative therapeutic effects of i.v. infused CD6-derived peptides on mouse survival following Cecal Ligation and Puncture (CLP)-induced sepsis. (A, B) C57BL/6J mice were i.v. infused with saline (n=25) or single 6 mg/kg doses of unlabeled CD6- (PD1, n=8; PD2, n=16; PD3, n=15; Pcons, n=12) or DMBT1 (pbs1, n=13) derived peptides at +1 h post CLP induction. A sham group (n=3) was included. In all cases average percent survival was analyzed over time for each group and compared with the saline-treated group using the long-rank t-test (*, P<0.05; **, P<0.01; ***, P<0.001).
FIG. 8. Dose-, time- and via-dependent effects of CD6.PD3 infusion on mouse survival following CLP-induced sepsis. (A) C57BL/6 mice were i.v. infused at +1 h post CLP with saline (n=26) or single increasing doses (3 mg/kg, n=13; 6 mg/kg, n=15; and 12 mg/kg, n=8) of CD6.PD3 peptide. (B) C57BL/6 mice were i.v. infused with saline (n=4) or 6 mg/kg CD6.PD3 at different times post CLP (+1 h, n=5; +3 h, n=5; +6 h, n=6). (C) C57BL/6J mice were i.v. (n=11) or i.p. (n=9) infused with 6 mg/kg CD6.PD3 peptide or saline (n=9) at +1 h post CLP. In all cases, average percent of survival was analyzed over time and compared with the saline-treated group using a log-rank t-test (n.s., not significant; *, P<0.05. **, P<0.01; ***, P<0.001).
FIG. 10. Additive effects of combined administration of CD6.PD3 plus Imipenem/Cilastatin on mouse survival following CLP-induced sepsis. C57BL/6J mice were therapeutically infused at +1 h post CLP with saline (n=36), CD6.PD3 (6 mg/kg i.v.; n=25), Imipenem/Cilastatin (I/C, 50 mg/kg/12 h i.p.; n=9) or a combination of the two later (I/C+PD3, n=11). In all cases average percent survival was analyzed over time for each group and compared to the I/C plus CD6.PD3 group using the long-rank t-test (**, P<0.02; ***, P<0.002).
Animal procedures were approved by the Animal Experimentation Ethical Committee, University of Barcelona. High-grade mortality (≥90% mortality within the first 48-72 h) CLP-induced septic shock was induced in 8-10 week old C57BL/6J male mice (20-25 g; Charles River) as previously reported (Martinez-Florensa M, et al., 2017, Protective Effects of Human and Mouse Soluble Scavenger-Like CD6 Lymphocyte Receptor in a Lethal Model of Polymicrobial Sepsis, Antimicrob Agents Chemother 61:e01391-16).
Survival assays were analyzed by a Log-Rank χ^2 test using GraphPad Prism software. The significance of differences between experimental groups was determined by 2-tailed paired T test with 95% of confidence intervals (CI). P values were considered significant when P<0.05. Statistical analysis (mean±SEM) was performed using a 2-tailed Mann-Whitney test, with 95% of Cl.

[6] = depending on the G− strain used; read-out: Kd of the LPS/Polymixin B interaction; cited from earlier work
[7] = Endotoxin adsorption on peptide/protein-coated Eupergit beads (LAL assay); details: 50 UI/mL LPS, 0-150 min, vs HSA- and rshCD5-coated controls
Method: FIG. 11. Endotoxin adsorption assays on immobilized CD6-derived peptides and proteins. Eupergit® beads coated with different CD6-derived peptides (PD2, PD3, and Pcons) (A) or proteins (rshCD5 and rshCD6) (B) were incubated for different periods of time (0, 30, 90 and 150 min) with a 50 UI/mL endotoxin solution. Limulus amoebocyte lysate activating activity (LAL activity) of supernatants was then monitored along time and the OD 405-620 nm represented. Beads coated with Human Serum Albumin (HSA) were used as negative controls. Shown are triplicates of a representative experiment from two independent performed. Statistical analysis was done by using the 2-tailed paired T test with 95% confidence interval (***, P<0.001).
Proteins or peptides (2.5 mg each) were immobilized via NH2 groups on macroporous acrylic EUPERGIT© beads (0.2 g; Röhm-Pharma GmbH, Germany) following a previously described protocol (Zimmermann M, et al., 1999, Endotoxin adsorbent based on immobilized human serum albumin. Clin Chem Lab Med 37:373-379). Peptide or protein-coated Eupergit® beads are obtained by incubation with stirring of the polymeric beads at room temperature with a solution of the peptides of the invention in sodium phosphate buffer 100 mM pH 8 for 24 hours. After incubation, the beads were washed 3 times with 3 M sodium chloride pH 7.0, 30 mM sodium phosphate buffer pH 4.0 and 30 mM sodium phosphate buffer pH 8.0. Finally, 154 mM sodium chloride solution pH 7.0 was added to the peptide or protein-coated beads.
LPS detection was performed by using the turbidimetric-kinetic Limulus Amebocyte Lysate (LAL) kit-QCL (50-650U, Lonza) following manufacturer's instructions. Protein/peptide-coated EUPERGIT® beads were incubated 1:1 (v:v) with the provided endotoxin solution (50 UI/mL) for different periods of time (0-150 min) at room temperature following manufacturer's instructions.

[8] = cited from earlier work
[9] = tested on: pro-inflammatory cytokine (IL-1β, IL-6, TNF-α) release; details: cited from earlier work
[10] = tested on: mouse models of septic shock; details: cited from earlier work

Row | Molecule | binding to immobilized LPS (ELISA) [1] | binding to immobilized LTA (ELISA) [2] | hydrodynamic size, first (or single) peak [3] | hydrodynamic size, second peak [3] | survival [5] | also measured
1 | GQLEVYLKDGW (CD5.PD1) | no significant binding | no significant binding |  |  |  | 
2 | GRVEVLFRGSW (CD6 Pcon) [CD6.cons, reference compound] | dose-dependent binding | dose-dependent binding | 1636±6 nm | 5493±7 nm | 25% | IL-1β release [4]: dose-dependent inhibitory effects; IL-6 release [4]: dose-dependent inhibitory effects; IL-10 release [4]: not
3 | GRVEVLYRGSW (DMBT-1.pbs1) [DMBT1.pbs1, reference compound] | dose-dependent binding | dose-dependent binding | 169±5 nm | 617±4 nm | 23.07% | 
4 | Polymixin B |  |  |  |  |  | Kd [6]: 100 to 900 nM
5 | rshCD6: recombinant soluble form of human CD6, SEQ ID NO.: 10 (protein, rshCD6) DQLNTSSAESELWEPGERLPVRLTNGSSSCSGTVEVRLEASWEPACGALWDSRAAEAVCRALGCGGAEAASQLAPPTPELPPPPAAGNTSVAANATLAGAPALLCSGAEWRLCEVVEHACRSDGRRARVTCAENRALRLVDGGGACAGRVEMLEHGEWGSVCDDTWDLEDAHVVCRQLGCGWAVQALPGLHFTPGRGPIHRDQVNCSGAEAYLWDCPGLPGQHYCGHKEDAGAVCSEHQSWRLTGGADRCEGQVEVHFRGVWNTVCDSEWYPSEAKVLCQSLGCGTAVERPKGLPHSLSGRMYYSCNGEELTLSNCSWRFNNSNLCSQSLAARVLCSASRSLHNLSTPEVPASVQTVTIESSVTVKIENKESR |  |  |  |  |  | endotoxin levels (LAL assay) [7]: reduced endotoxin levels; Kd affinities for bacterial PAMPs (LPS, LTA or PGN) [8]: in the nM range; pro-inflammatory cytokine (IL-1β, IL-6, TNF-α) release triggered by LPS or LTA/PGN [9]: down-modulates; lethal effects caused by LPS-induced septic shock ([10]; i.p. administration, mice (EP 2143436)): counteracts the lethal effects; serum levels of pro-inflammatory cytokines (IL-1β, IL-6 and TNF-α) ([10]; prophylactic infusion): significantly reduces; mortality ([10]; prophylactic infusion, endotoxin, whole bacteria and peritonitis models): significantly reduces mortality
